Where two headings read alike, the source gives them in different places.
Key:
[1] = Metabolic stability, human microsomes; type: in vitro ADME; conditions: 37° C.; for Metabolic Stability 60 min hum: % of the initial 0 minutes value at 60 min, 10 μM
Summary of the method: (§1)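 Human pooled (50-donor) or CD-1 mouse liver microsomes, 1 mg/ml protein, with NADPH-regenerating system in 100 mM potassium phosphate; 10 μM compound at 37 °C, sampled at 0, 20 and 60 min. HPLC/MS/MS quantified remaining parent as % of 0 min, and T½ (min) calculated.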

[2] = both, CD-1, mouse, 10 μM
Method: (§2) Example compounds were dissolved in DMSO/H2O 90:10 to a final concentration of 10 mM for plasma stability determination and metabolic stability determination.
(§3) Human plasma (3-5 donors, Blutspendedienst SRK, Basel) and CD-1 mouse plasma (mixed gender pool>50 animals, Innovative Research, CA, USA) are both sodium citrate stabilized. The assay is performed in triplicates at 10 μM compound concentration and 37° C. Samples are taken at 0, 15, 60, and 240 minutes and stopped by precipitation with 2 volumes of acetonitrile. The supernatant is collected, evaporated and reconstituted in a 5% acetonitrile solution to be analyzed by HPLC/MS/MS. The resulting peak area counts are expressed in percent of the 0 value and used to determine the endpoint stability in % and the half life T½ in minutes. In order to monitor assay integrity the degradation of propantheline is assayed with every experimental set

[3] = human, 10 μM
Method: as §2, §3

[4] = Metabolic stability, CD-1 mouse microsomes; type: in vitro ADME; conditions: 37° C.; for Metabolic Stability 60 min mouse: % of the initial 0 minutes value at 60 min, 10 μM
Summary of the method: as §1

[5] = biological target: T1, 5-hydroxytryptamine 2B (5-HT2B) receptor (Homo sapiens, UniProt P41595); assay: Ca2+ assay (FLIPR), 5-hydroxytryptamine 2B (5-HT2B) receptor, agonist mode (percentage activation); type: cell-based
T1 construct: expressed in transfected cells; host or cells: Ca2+ optimized hematopoietic cell lines (rat)
Method: Dose dependent agonist and antagonist activities were determined. Percentage activation and percentage inhibition values were determined.
Percentage activation was determined upon initial addition of the sample compounds followed by 10 minutes incubation at 25° C. Following compound incubation, reference agonists were added at EC80 to determine percentage inhibition.
All handling of ligands were done to ensure proper control throughout the experiments.
HBSS was supplemented with 20 mM HEPES (4-(2-hydroxyethyl)-piperazin-1-ethansulfonic acid) and 2.5 mM Probenecid (Sigma P8761).
GPCR assays were performed using Ca^2+ optimized hematopoietic cell lines (rat) with cultures never exceeding 90% confluency. […] After seeding, the assay plates were incubated for forty-five (45) minutes at room temperature. After room temperature incubation, the assay plates were incubated at 37° C. 5% CO2 for 24 hours prior to assaying.
All GPCR assays were performed using Fluo-8 Ca^2+ dye. Ca^2+ dye was prepared at 1× dye concentration in GPCR assay buffer. […] The plates were incubated for 90 minutes at 30° C. 5% CO2 prior to FLIPR assay.
Compound plates were prepared to add 50 μL/well during the agonist assay mode. During the FLIPR assay, 50 μL/well from the compound plate was diluted 3-fold into the existing 100 μL/well from the dye loading step. Therefore all compounds were prepared as 3× the final concentration desired in the assay.
After completion of the first single addition assay run, assay plate was removed from the FLIPR Tetra and placed at 25° C. for seven (7) minutes before antagonist assay.
From the FLIPR data, with negative control correction enabled, the maximum statistic for each well was exported and percentage activation relative to Emax control was calculated.

[6] = Plasma stability, CD-1 mouse plasma; conditions: endpoint stability in % of the 0 value at 240 min, 10 μM, 37° C.
Method: as §2, §3

[7] = Plasma stability, human plasma; conditions: endpoint stability in % of the 0 value at 240 min, 10 μM, 37° C.
Method: as §2, §3

[8] = 10 μM compound, 1 mg/ml microsomal protein, sampling up to 60 min

T1 sequence (P41595 whole entry): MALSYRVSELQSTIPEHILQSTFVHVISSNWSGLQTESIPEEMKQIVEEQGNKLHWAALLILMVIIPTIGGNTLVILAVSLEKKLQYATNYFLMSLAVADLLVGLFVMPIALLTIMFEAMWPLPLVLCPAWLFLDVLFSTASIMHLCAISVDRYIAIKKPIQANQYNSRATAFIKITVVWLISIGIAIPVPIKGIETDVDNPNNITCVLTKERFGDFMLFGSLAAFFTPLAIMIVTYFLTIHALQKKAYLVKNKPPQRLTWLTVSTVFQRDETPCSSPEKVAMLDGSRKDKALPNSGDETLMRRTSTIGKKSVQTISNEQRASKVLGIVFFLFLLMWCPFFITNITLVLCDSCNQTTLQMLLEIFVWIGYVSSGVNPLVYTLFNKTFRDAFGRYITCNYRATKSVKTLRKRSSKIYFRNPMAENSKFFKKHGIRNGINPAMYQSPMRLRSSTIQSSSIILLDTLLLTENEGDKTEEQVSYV

Compound | Metabolic Stability 60 min hum [1] [%] | Plasma Stability 240 min mouse [2] [%] | Plasma Stability 240 min hum [3] [%] | Metabolic Stability 60 min mouse [4] [%] | 5-HT2B receptor agonist activity [% activation at 12.5 μM] [5] [%] | Plasma Stability 240 min mouse [6] [%] | Metabolic Stability T ½ [min] hum [1, 8] [min] | Plasma Stability 240 min hum [7] [%] | Metabolic Stability T ½ [min] mouse [4, 8] [min]
CN1CC(=O)N2C[C@@H](NC(=O)OC(C)(C)C)C[C@H]2COc2ccc(F)cc2C(=O)N(C)[C@H](C(=O)NCCc2c[nH]c3ccccc23)CCC1=O [Ex. 30, tert-butyl N-[(2S,11S,19aS)-15-fluoro-11-({[2-(1H-indol-3-yl)ethyl]amino}carbonyl)-7,12-dimethyl-5,8,13-trioxo-2,3,6,7,8,9,10,11,12,13,19,19a-dodecahydro-1H,5H-pyrrolo[2,1-c][1,4,7,12]benzoxatriazacyclopentadecin-2-yl]carbamate] | 2 | 100 | 85 | 55 | 48 | – | – | – | –
CCCCC(=O)N[C@H]1C[C@H]2COc3ccc(F)cc3C(=O)N(C)[C@@H](C(=O)NCc3ccc4ccccc4c3)CCC(=O)N(C)CC(=O)N2C1 [Ex. 103, (2S,115,19aS)-15-fluoro-7,12-dimethyl-N-(2-naphthylmethyl)-5,8,13-trioxo-2-(pentanoylamino)-2,3,6,7,8,9,10,11,12,13,19,19a-dodecahydro-1H,5H-pyrrolo[2,1-c][1,4,7,12] benzoxatriazacyclopentadecine-11-carboxamide] | 22 | – | – | 25 | – | 75 | 35 | 97 | 36
